Reference: patent publication US20260021167A1, “COMPOSITIONS AND METHODS FOR TREATING OR PREVENTING NEURODEGENERATIVE DISEASES” (Delaware State University, priority 2022, published 2026)

Legend:
PFF-injected old mice [1] = test: Nesting in PFF-injected mice; format: in vivo, mouse; conditions: 10 and/or 50 mg/kg oral, vs PFF only
Method: (§1) A mouse model of Parkinson's disease is C57BL/6 male or female mice (50% each) injected with 5 μg of mouse PFF at 12 months old, followed by a treatment below for 6-7 weeks: • 1) without PFF injection, followed by vehicle (control, n=7); • 2) PFF injection, followed by vehicle (PFF only: control, n=8); • 3) PFF injection, followed by daily 10 mg/kg Momordin gavage (n=7-8); • 4) PFF injection, followed by daily 50 mg/kg Momordin gavage (n=7-8).
Nesting. A 5×5 cm cotton nesting patch was placed in a clean cage housing a single animal. On the following day, pictures were taken of the condition of the nesting material utilized and analyzed in a blind manner. The ability of an animal to tear up the cotton nesting material and build a nest dictates the activity and motor coordination levels of the animal. Three dimensionally built nest was given as 5 points as the highest score, and a barely touched nesting patch was considered a low score of 1 point. The points were represented on the graph to show any improvement in nesting capabilities across the groups.

[2] = test system: phosphorylated α-synuclein; test: Western blot of phosphorylated α-synuclein in α-synuclein IP tissue samples; format: in vivo, mouse; conditions: PFF-injected mice, vs PFF only
Method: (§2) A) In Western blots, Momordin reversed the toxicity from PFF injection in reducing phospho-α-synuclein and SENP-1 on α-synuclein in the MB and STR. […] A pathological marker, phosphorylated α-synuclein was increased by PFF injection, which was reversed by Momordin treatment in the MB (F) and the STR (G).
as §1

PFF-injected old mice [3] = test: Pole test in PFF-injected mice; format: in vivo, mouse; conditions: 10 and/or 50 mg/kg oral, vs PFF only
Method: as §1
Pole Test. All the mice were placed on a vertical pole with their face up and habituated to face down the pole to climb down for 5 consecutive days. The time taken for a mouse to turn and position for the descend was noted, and the latency for climb-down was counted. A mouse falling off or slipping down the pole without turning was considered a failure. Videos of the pole test were taken and analyzed by a blinded rater to record the total climb-down or turn time. Minimal 5 trials were performed for each animal, and the average of 5 trials was considered as the final score for data presentation.

[4] = low and high dosages (10 or 50 mg/kg)
[5] = test system: SUMO-1 conjugated α-synuclein; test: Western blot of SUMO-1 conjugated α-synuclein in α-synuclein IP tissue samples; format: in vivo, mouse; conditions: PFF-injected mice, vs PFF only
Method: as §2, §1

PFF-injected old mice [6] = test: Hindlimb clasping in PFF-injected mice; format: in vivo, mouse; conditions: 10 and/or 50 mg/kg oral, vs PFF only
Method: as §1
Hindlimb Clasping. This is often characterized by bat-like posture when mice are picked up by the tail, indicating they are experiencing severe motor deficits. A mouse was placed on a horizontal plane and held at 2 cm from the tail tip, then slowly to the height of 10 cm from the surface. A video was recorded for 15 sec for each trial. A total of 3 trials were taken over 3 consecutive days and analyzed for the time in hindlimb clasping by a blinded rater.

SENP-1 = molecular target: T1, SENP-1 (Rattus norvegicus, UniProt A0A0G2JVG1); test: Western blot of SENP-1 level in PFF-exposed N27p cells; format: cell-based; conditions: PFF exposure, compared with PFF only
T1 construct: endogenous in cells; host or cells: N27p (N27 parental) rat dopaminergic cells
T1 sequence (A0A0G2JVG1 1-672): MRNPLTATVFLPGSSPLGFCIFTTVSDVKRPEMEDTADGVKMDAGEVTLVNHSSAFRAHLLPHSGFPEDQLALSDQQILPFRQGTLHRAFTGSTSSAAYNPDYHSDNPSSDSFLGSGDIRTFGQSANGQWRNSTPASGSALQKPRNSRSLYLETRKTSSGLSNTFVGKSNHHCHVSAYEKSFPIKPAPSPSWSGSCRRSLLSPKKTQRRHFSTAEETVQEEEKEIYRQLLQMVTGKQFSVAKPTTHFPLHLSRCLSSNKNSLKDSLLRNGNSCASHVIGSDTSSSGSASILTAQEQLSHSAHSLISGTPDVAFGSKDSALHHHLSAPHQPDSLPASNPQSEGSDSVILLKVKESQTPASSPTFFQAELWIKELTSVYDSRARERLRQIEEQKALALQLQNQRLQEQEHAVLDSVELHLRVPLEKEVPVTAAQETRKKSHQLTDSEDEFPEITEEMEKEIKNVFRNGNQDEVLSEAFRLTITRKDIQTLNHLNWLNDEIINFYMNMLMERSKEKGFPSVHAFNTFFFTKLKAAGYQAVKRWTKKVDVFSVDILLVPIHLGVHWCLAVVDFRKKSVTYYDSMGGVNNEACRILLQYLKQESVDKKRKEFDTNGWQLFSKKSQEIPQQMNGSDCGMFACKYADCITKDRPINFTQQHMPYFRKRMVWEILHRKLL
Source text: A) The RNA interference suppressed the expression level of SENP-1, which enhanced SUMO-1 level. […] One-Way ANOVA, Dunnett's test was applied for statistical analysis in comparison with PFF only (#). *: p<0.05, **: p<0.01, p<0.001 and n.s.: not significant.

## CC1(C)CC[C@]2(C(=O)O)CC[C@]3(C)C(=CC[C@@H]4[C@@]5(C)CC[C@H](O[C@@H]6O[C@H](C(=O)O)[C@@H](O)[C@H](O[C@@H]7OC[C@@H](O)[C@H](O)[C@H]7O)[C@H]6O)C(C)(C)[C@@H]5CC[C@]43C)[C@@H]2C1 [Momordin lc]
PFF-injected old mice [1]
  nesting: improves the nesting
[2]; midbrain
  phosphorylated α-synuclein in the MB (α-synuclein IP): reversed
[2]; striatum
  phosphorylated α-synuclein in the STR (α-synuclein IP): reversed
PFF-injected old mice [3]
  climb-down time in pole tests: reduces
  turn time in pole tests: reduces
[4]
  safety in mice: safe
[5]; midbrain
  SUMO-1 conjugated α-synuclein in the MB (α-synuclein IP): increase in SUMO-1 conjugated α-synuclein
[5]; striatum
  SUMO-1 conjugated α-synuclein in the STR (α-synuclein IP): increase in SUMO-1 conjugated α-synuclein
PFF-injected old mice [6]
  hindlimb clasping: reduces hindlimb clasping
SENP-1
  level of SENP-1 (Western blot): reduced the level of SENP-1
